Source: patent US10688047B2, “Physically and chemically stable oral suspensions of givinostat” (ITALFARMACO SPA, priority 2015, dated 2020)
pIC50: −log10 of the molar value. Converted amounts (≈) assume the structure as drawn. Where two headings read alike, the source gives them in different places. One block for each compound: values may come before it.

How the values were obtained:
[1] = at 20° C.; cited from earlier work
[2] = Chemical stability of ITF2357 solutions (degradation on storage); type: physicochemical
Protocol: For example, solubility of ITF2357 in phosphate buffers at pH 2, 4.5, 6 and 8 is about 1.13-2.88-0.77 and 0.05 mg/mL respectively. Thus, it is technically possible to prepare aqueous solutions of ITF2357, having concentrations, e.g., between 0.02 and 0.3% w/v, intended for oral administration. However, because of the poor Givinostat solubility, large volume of an oral solution formulation would need to be administered to allow administration of effective drug doses and this pose patient compliance issues. […] In a preferred embodiment, the suspension according to the invention further comprising at least a buffering agent.

[3] = Solubility of Givinostat (ITF2357) in water, buffers and aqueous vehicles; type: physicochemical
Protocol: Solubility of Givinostat was tested in aqueous vehicles at pH 6, containing Phosphate buffer. Tween 20 as wetting agent and either Sorbitol or Sucrose (40% w/v). To this aim, an amount of Givinostat sufficient to ensure saturation was mixed with 15 mL of each vehicle in separate vials. These vials were shaken at 25° C.±PC for at least 24 hours in order to obtain equilibrium. The saturated solution was then separated from the excess solid by filtration and Givinostat (ITF2357) was quantitated in the filtrate by UV-Vis spectrophotometric technique.
In table 4 solubility value determined on ITF 2357 saturated solution in different buffer at pH 4.5 are reported.
Solubility of ITF2357 determined in suspension vehicles having compositions as described in Example 1, thus containing Sorbitol at 40% w/v and Tartrate buffer, at different pH (pH range from 4 to 7 adjusted with Tartaric Acid or Sodium Hydroxide) are shown in Table 5.

interferon-γ (IFNγ) = details: LPS-stimulated cultured human PBMCs; read-out: concentration reducing by 50% the production of IFNγ; cited from earlier work
[4] = Solubility of Givinostat (ITF2357) in water, buffers and aqueous vehicles; type: physicochemical; details: phosphate buffer
serum TNFα = details: mice, oral administration of 1.0 to 10 mg/kg; cited from earlier work
serum IFNγ = details: mice, oral administration of 1.0 to 10 mg/kg; cited from earlier work
IL-1β = details: LPS-stimulated cultured human PBMCs; read-out: concentration reducing by 50% the release of intracellular interleukin IL-1β; cited from earlier work

Structure (SMILES): OC[C@H]1O[C@@](CO)(O[C@H]2O[C@H](CO)[C@@H](O)[C@H](O)[C@H]2O)[C@@H](O)[C@@H]1O [Sucrose]
- parts of water in which 1 part dissolves [1]: 0.3 parts of water

- degradation of solution ([2]; phosphate buffer pH 2, 6 days at 40° C.): about 6.3%
- degradation of solution ([2]; phosphate buffer pH 4.5, 6 days at 40° C.): ~0.8%
- degradation of solution ([2]; phosphate buffer pH 6, 6 days at 40° C.): ~0.5%
- degradation of solution ([2]; phosphate buffer pH 8, 6 days at 40° C.): ~2.1%
- solubility ([3]; acetate buffer, pH 4.5, aqueous buffer, thermodynamic from solid, Acetate buffer pH 4.5, read-out: ITF2357 solubility): 5.1 mg/mL (≈ 12100 µM)
- solubility ([3]; aqueous vehicle, 25 °C, pH 6, aqueous with cosolvent or surfactant or cyclodextrin, thermodynamic from solid, Phosphate buffer pH 6, Tween 20, Sorbitol 10% (w/v), 25° C., read-out: ITF2357 Solubility): 2.34 mg/mL (≈ 5550 µM)
- solubility ([3]; aqueous vehicle, 25 °C, pH 6, aqueous with cosolvent or surfactant or cyclodextrin, thermodynamic from solid, Phosphate buffer pH 6, Tween 20, Sorbitol 20% (w/v), 25° C., read-out: ITF2357 Solubility): 2.11 mg/mL (≈ 5000 µM)
- solubility ([3]; aqueous vehicle, 25 °C, pH 6, aqueous with cosolvent or surfactant or cyclodextrin, thermodynamic from solid, Phosphate buffer pH 6, Tween 20, Sorbitol 30% (w/v), 25° C., read-out: ITF2357 Solubility): 2.02 mg/mL (≈ 4790 µM)
- solubility ([3]; aqueous vehicle, 25 °C, pH 6, aqueous with cosolvent or surfactant or cyclodextrin, thermodynamic from solid, Phosphate buffer pH 6, Tween 20, Sorbitol 40% (w/v), 25° C., read-out: ITF2357 Solubility): 1.93 mg/mL (≈ 4580 µM)
- solubility ([3]; aqueous vehicle, 25 °C, pH 6, aqueous with cosolvent or surfactant or cyclodextrin, thermodynamic from solid, Phosphate buffer pH 6, Tween 20, Sucrose 40% (w/v), 25° C., read-out: ITF2357 Solubility): 3.88 mg/mL (≈ 9190 µM)
- solubility ([3]; phosphate buffer pH 4.5): 2.88 mg/mL (≈ 6830 µM)
- solubility ([3]; phosphate buffer, pH 4.5, aqueous buffer, thermodynamic from solid, phosphate buffer pH 4.5, read-out: solubility): ~2.88 mg/mL (≈ 6830 µM)
- solubility ([3]; phosphate buffer, pH 8, aqueous buffer, phosphate buffer pH 8, read-out: solubility): ~0.05 mg/mL (≈ 119 µM)
- solubility ([3]; purified water, water, purified water, read-out: solubility): ~2.5 mg/mL (≈ 5930 µM)
- solubility ([3]; suspension vehicle, pH 4, aqueous with cosolvent or surfactant or cyclodextrin, thermodynamic from solid, Tartrate buffer pH = 4.0, Tween 20, Sorbitol 40% w/v, read-out: ITF2357 solubility): 0.21 mg/mL (≈ 498 µM)
- solubility ([3]; suspension vehicle, pH 5, aqueous with cosolvent or surfactant or cyclodextrin, thermodynamic from solid, Tartrate buffer pH = 5.0, Tween 20, Sorbitol 40% w/v, read-out: ITF2357 solubility): 0.15 mg/mL (≈ 356 µM)
- solubility ([3]; suspension vehicle, pH 5.5, aqueous with cosolvent or surfactant or cyclodextrin, thermodynamic from solid, Tartrate buffer pH = 5.5, Tween 20, Sorbitol 40% w/v, read-out: ITF2357 solubility): 0.16 mg/mL (≈ 380 µM)
- solubility ([3]; suspension vehicle, pH 6, aqueous with cosolvent or surfactant or cyclodextrin, thermodynamic from solid, Tartrate buffer pH = 6.0, Tween 20, Sorbitol 40% w/v, read-out: ITF2357 solubility): 0.15 mg/mL (≈ 356 µM)
- solubility ([3]; suspension vehicle, pH 6.5, aqueous with cosolvent or surfactant or cyclodextrin, thermodynamic from solid, Tartrate buffer pH = 6.5, Tween 20, Sorbitol 40% w/v, read-out: ITF2357 solubility): 0.16 mg/mL (≈ 380 µM)
- solubility ([3]; suspension vehicle, pH 7, aqueous with cosolvent or surfactant or cyclodextrin, thermodynamic from solid, Tartrate buffer pH = 7.0, Tween 20, Sorbitol 40% w/v, read-out: ITF2357 solubility): 0.15 mg/mL (≈ 356 µM)
- solubility ([3]; tartrate buffer, pH 4.5, aqueous buffer, thermodynamic from solid, Tartrate buffer pH 4.5, read-out: ITF2357 solubility): 0.23 mg/mL (≈ 546 µM)
- solubility ([4]; pH 2, aqueous buffer, phosphate buffer pH 2): ~1.13 mg/mL (≈ 2680 µM)
- solubility ([4]; pH 6, aqueous buffer, phosphate buffer pH 6): ~0.77 mg/mL (≈ 1830 µM)
Structure (SMILES): CCN(CC)Cc1ccc2cc(COC(=O)Nc3ccc(C(=O)NO)cc3)ccc2c1 [ITF2357, Givinostat]
- pIC50 (interferon-γ (IFNγ)): 7.60
- reduction of LPS-induced serum TNFα (serum TNFα): more than 50%
- reduction of LPS-induced serum IFNγ (serum IFNγ): more than 50%
- pIC50 (IL-1β): 7.92
